Entries after “also recorded” stand apart in the source; their conditions may differ. Ends that are not written are not given here.
Legend:
[1] = Solubility, in vitro precipitation assay (PBS pH 7.4 vs 10 mM acetic acid); assay type: physicochemical; details: PBS pH 7.4, 1 h room temperature, FIG. 16A
Method: The relative solubilities of SP-PTH-AAK (SEQ ID NO:4) and SP-PTH (SEQ ID NO:11) in different buffers were assessed in an in vitro precipitation assay. For each polypeptide, two vials, each containing 50 μg of lyophilized polypeptide powder, were prepared; one vial was reconstituted in 50 μl of PBS at pH 7.4; the other vial was reconstituted in 50 μl of 10 mM acetic acid (pH 2.9) to give final concentrations of 1.0 mg/ml […]. After one hour at room temperature, the vials were centrifuged at 15,000×g for 2 minutes. The supernatant was removed and the protein content assayed using the Pierce BCA assay (Thermo Fischer Scientific, Rockford, Ill.). For each polypeptide, the content of the PBS sample was expressed as percent of the content of the corresponding acetic acid sample.

[2] = Stability in phosphate-citrate buffers and 10 mM acetic acid, reverse-phase HPLC; assay type: physicochemical; details: 4 weeks
Method: The amount of intact SP-PTH-AAK (SEQ ID NO:4) peptide remaining in the sample, as compared to the starting sample, was measured by rPHPLC.
Stability testing of SP-PTH-AAK (SEQ ID NO:4) was also performed. SP-PTH-AAK (SEQ ID NO:4) was stored at different peptide concentrations in 50 mM phosphate-citrate (PC) buffer (pH 4.0, 4.5, and 5.5) and 10 mM acetic acid at 5, 25, and 40° C. for 4 weeks.

rat PTHR1 (RG) = biological target: T1, rat PTHR1 (RG) (Rattus norvegicus, UniProt P25961); assay: Competition binding, RG conformation of rat PTHR1
T1 construct: expressed in transfected cells
T1 sequence (P25961 27-591): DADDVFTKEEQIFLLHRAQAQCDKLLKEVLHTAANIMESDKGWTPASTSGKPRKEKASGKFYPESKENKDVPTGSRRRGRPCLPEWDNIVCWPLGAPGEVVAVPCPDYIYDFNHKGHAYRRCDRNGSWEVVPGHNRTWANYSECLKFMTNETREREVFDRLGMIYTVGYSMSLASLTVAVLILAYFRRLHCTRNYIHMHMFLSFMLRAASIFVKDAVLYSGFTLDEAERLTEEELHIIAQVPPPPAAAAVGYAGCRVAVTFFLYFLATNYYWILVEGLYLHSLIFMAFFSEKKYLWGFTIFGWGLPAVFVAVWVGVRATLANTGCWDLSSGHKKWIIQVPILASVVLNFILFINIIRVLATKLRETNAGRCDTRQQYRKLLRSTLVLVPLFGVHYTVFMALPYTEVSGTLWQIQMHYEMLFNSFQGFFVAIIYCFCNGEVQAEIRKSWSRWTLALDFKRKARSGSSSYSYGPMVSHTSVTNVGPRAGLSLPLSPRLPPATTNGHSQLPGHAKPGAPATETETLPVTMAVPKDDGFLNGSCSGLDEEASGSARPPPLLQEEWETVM
Description: (§1) Briefly, the R^0 form of the receptor can be favored by addition of the non-hydrolyzable nucleotide analog GTPγS. The RG form can be favored, for example, by co-transfection of cells with a negative dominant Gαs subunit. […] Data are means of four experiments, each performed in duplicate. Curves were fit to the data using Graph-Pad Prism 4.0.

rat PTHR1 (R0) = biological target: T2, rat PTHR1 (R0) (Rattus norvegicus, UniProt P25961); assay: Competition binding, R0 conformation of rat PTHR1; details: for IC50: R0 conformation, mean of 4 experiments, read-out: Binding rat PTHR1 IC50 (Log M) R0 (converted)
T2 sequence (P25961 27-591): T1 sequence (P25961 27-591)
Description: as §1

in vivo = details: rat, iv, 24.3 nmol/kg
PD PTH receptor = biological target: T3, PD PTH receptor (Mus musculus, UniProt P41593, S489A/S491A/S492A/S493A/S495A/S501A/S504A); assay: Blood calcium and cAMP in knock-in mice with phosphorylation-deficient (PD) PTH receptor vs wild-type; assay type: in vivo; details: FIG. 19
T3 construct: endogenous in cells; host or cells: knock-in mice (in vivo)
T3 sequence (P41593 27-591 S489A/S491A/S492A/S493A/S495A/S501A/S504A): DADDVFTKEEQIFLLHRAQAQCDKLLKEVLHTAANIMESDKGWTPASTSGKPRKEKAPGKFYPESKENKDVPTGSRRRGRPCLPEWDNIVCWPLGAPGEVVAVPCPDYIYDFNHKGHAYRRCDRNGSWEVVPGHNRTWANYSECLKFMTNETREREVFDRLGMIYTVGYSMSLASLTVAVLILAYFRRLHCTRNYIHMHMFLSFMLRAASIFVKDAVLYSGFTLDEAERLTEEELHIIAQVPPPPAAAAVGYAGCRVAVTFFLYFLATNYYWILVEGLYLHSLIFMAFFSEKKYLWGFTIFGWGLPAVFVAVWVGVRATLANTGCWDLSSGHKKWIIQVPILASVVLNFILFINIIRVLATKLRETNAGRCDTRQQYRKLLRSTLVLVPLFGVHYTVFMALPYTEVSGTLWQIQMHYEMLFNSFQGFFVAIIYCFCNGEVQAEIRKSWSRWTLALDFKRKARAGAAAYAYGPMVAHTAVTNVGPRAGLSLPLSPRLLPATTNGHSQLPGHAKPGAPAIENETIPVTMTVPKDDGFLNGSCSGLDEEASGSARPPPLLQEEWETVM
Method: The activity of SP-PTH-AAK (SEQ ID NO:4) was tested in “knock-in” mice that express a PD PTH receptor in place of the wild-type PTH receptor (Bounoutas et al., Endocrinology 147: 4674, 2006).
Blood cAMP levels were also compared between the two types of mice.

[3] = Plasma concentration in cynomolgus monkey after intravenous injection; assay type: in vivo; details: male, 1 nmol/kg intravenous
Method: FIG. 11B is a graph showing plasma concentration of SP-PTH (SEQ ID NO:11) in monkey following intravenous injection of 1 nmol/kg.
The effects of the SP-PTH (SEQ ID NO:11) and SP-PTH-AAK (SEQ ID NO:4) (“SP-AAK”) on serum and urinary calcium and phosphate levels were tested in cynomolgus monkeys. Briefly, three- or four-year-old, male cynomolgus monkeys (HAMRI Co., Ltd., Ibaraki, Japan) were measured for their body weight. Blood was collected into tubes. Monkeys received intravenous or subcutaneous administration of each polypeptide at a dose of 0.3 ml/kg. Polypeptide concentrations in stock solution were adjusted by dilution with 25 mmol/L phosphate-citrate buffer/100 mmol/L NaCl/0.05% Tween 80 (pH.5.0) (PC-buffer). All polypeptides were allowed to stand on ice immediately before administration. Polypeptides were administered to groups of three monkeys each respectively. At 1, 2, 4, and 8 hours after administration, blood was collected by saphenous vein to monitor the time course of calcium and phosphorus levels (FIG. 11A).

| Substance | solubility in PBS pH 7.4 (percent of acetic acid sample), in words [1] | stability, intact peptide by reverse-phase HPLC at 25° C. ([2]; 50 mM PC buffer pH 4.0, 4.5, 5.5 and 10 mM acetic acid, 25° C.) | stability at 40° C., HPLC finding ([2]; 40° C.) | binding to RG form of rat PTHR1, comparison in words (rat PTHR1 (RG); FIG. 1B) | IC50 (rat PTHR1 (RG); RG conformation, read-out: Binding rat PTHR1 IC50 nM RG (converted)) | binding to R0 form of rat PTHR1, comparison in words (rat PTHR1 (R0); FIG. 1A) | stronger binding to the R0 form of the rat PTH receptor as compared to PTH(1-34) (rat PTHR1 (R0); FIG. 1A) | EC50 (rat PTHR1 (R0); FIG. 1A, read-out: log EC50, binding to the R0 form of the rat PTH receptor (converted)) | IC50 (rat PTHR1 (R0)) | MRT (in vivo; Crl:CD(SD)) | Vd (in vivo; Crl:CD(SD)) | clearance (in vivo; Crl:CD(SD)) | half-life (in vivo; Crl:CD(SD)) | AUC(0-t) (in vivo) | blood calcium level in PD mice (PD PTH receptor) | half-life [3] |
| --- | --- | --- | --- | --- | --- | --- | --- | --- | --- | --- | --- | --- | --- | --- | --- | --- |
| AVAEIQLMHQRAKWIQDARRRAFLHKLIAEIHTAEI-OH [SP-PTH-AAK, [Ala^1,3,12,18,22,Gln^10,Arg^11,Trp^14,Lys^26]PTH(1-14)/PTHrP(15-36)] | solubility similar to hPTH(1-34)NH2 | near full stability | a degraded product, likely a methionine-oxide derivative, was detected | strongest binding; also recorded: increased | 0.1 nM | strongest binding | greater than two orders of magnitude increase in binding | 0.2 nM | 0.209 nM | 5.83 min | 0.126 L/kg | 21.6 mL/min/kg | 7.27 min | 0.0187 µM·h | reduced blood calcium level for at least six hours after injection |  |
| AVAEIQLMHQRAKWIQDLRRRFFLHHLIAEIHTAEI-OH [SP-PTH, [Ala^1,3,12,Gln^10,Arg^11,Trp^14]PTH(1-14)/PTHrP(15-36)] |  |  |  |  |  |  |  |  | 1.45 nM |  |  |  |  |  |  | ~4 min |

— patent US9492508B2, “Parathyroid hormone analogs and uses thereof” (The General Hospital Corporation, priority 2010, dated 2016)
